According to patent US7759496B2, “Imidazole derivatives having affinity for alpha 2 receptors activity” (Orion Corporation, priority 2002, dated 2010):
Read-outs that look alike come from different tables or passages of the source.

Columns and labels:
[1] = system: normotensive rabbits; assay: IOP study in rabbits; type: in vivo, rabbit; details: for Intraocular pressure (IOP) change: mean ± SE, n = 5-6
Protocol: The IOP lowering effect of the prodrug was also compared to the effect of MPV-2426.
To perform the IOP test, a rabbit was placed in a plastic restraining box located in a quiet room. A single drop (25 μl) of the test solution was instilled unilaterally into its left eye on the upper corneoscleral limbus. During installation, the upper eyelid was pulled slightly away from the globe. IOP was measured using a BioRad (Cambridge, Mass.) Digilab Modular One Pneumatonometer. Before each measurement one or two drops of oxybuprocaine (0.06%) were applied to the cornea before tonometry to eliminate discomfort. The upper and lower eyelids were then gently retracted, and the applanation sensor was brought into contact with the center of the cornea. For each
determination at least two readings were taken from each treated (ipsilateral) and untreated (contralateral) eye, and the mean of these readings was used. IOP of the rabbits was measured at 2, 1, and 0 h before and at 0.5, 1, 2, 3, 4 and 5 h after eyedrop administration. IOP at the time of eyedrop administration (0 h) was used as a baseline value. All studies were set up using a masked and randomized crossover design. At least 72 h washout time was allowed for each rabbit between each dosing. Results

[2] = Chemical stability in phosphate buffer at 37° C.; type: physicochemical
Protocol: An appropriate amount of the test compound (initial concentrations were 0.1-0.4 mM) was dissolved in pre-heated phosphate buffer (0.16 M, μ=0.5, pH 7.4 or pH 5.0). The solution was placed in a thermostated water bath at 37° C. and aliquots were taken at suitable intervals and analyzed by HPLC to determine the degradation rate of the compound. The pseudo-first-order half-life (t1/2) was calculated from the linear slopes of semi-logarithmic plots of remaining compound over time.

[3] = system: serum esterases; assay: Enzymatic hydrolysis in 80% human serum; type: in vitro ADME; details: pH 7.4, 37° C., read-out: t1/2 (min) 80% human serum (pH 7.4)
Protocol: To exert the pharmacological effect in the body, a prodrug should be enzymatically degraded to the parent drug. Therefore, the susceptibility of the compounds to serum esterases was evaluated.
An appropriate amount of the test compound was dissolved in one volume (e.g. 1 ml) of phosphate buffer (0.16 M, μ=0.5, pH 7.4) at 37° C. Four volumes (e.g. 4 ml) of pre-heated human serum were added and the solutions were mixed in a water bath at 37° C. (initial concentrations were 0.2-0.5 mM). At suitable intervals, 300 μl aliquots were withdrawn and deproteinated with 600 μl of acetonitrile. After mixing and centrifugation, 600 μl of the supernatant was evaporated to dryness under a stream of air at 40° C. The residue was re-dissolved in 300 μl of the mobile phase and analyzed by HPLC. The pseudo-first-order half-life (t1/2) was calculated from the linear slopes of semi-logarithmic plots of remaining compound over time. Also the formation of the parent drug was determined.

[4] = phosphate buffer pH 5.0, 37° C., read-out: t1/2 (d) phosphate buffer pH 5.0 (converted)
[5] = phosphate buffer pH 7.4, 37° C., read-out: t1/2 (d) phosphate buffer pH 7.4 (converted)
[6] = topical unilateral administration

## Cl.Oc1ccc2c(c1)C(Cc1c[nH]cn1)CC2 (stereo not drawn) [MPV-2426, 4-(6-hydroxyindan-1-ylmethyl)-1H-imidazol-1-ium chloride, reference compound]
[1]; treated eye, 2.5 μg, 0 h
  Intraocular pressure (IOP) change: 0.0 ± 0.0 mmHg
[1]; treated eye, 2.5 μg, 0.5 h
  Intraocular pressure (IOP) change: 0.1 ± 1.0 mmHg
[1]; treated eye, 2.5 μg, 1 h
  Intraocular pressure (IOP) change: −2.6 ± 1.1 mmHg
[1]; treated eye, 2.5 μg, 2 h
  Intraocular pressure (IOP) change: −3.0 ± 0.7 mmHg
[1]; treated eye, 2.5 μg, 3 h
  Intraocular pressure (IOP) change: −2.4 ± 0.5 mmHg
[1]; treated eye, 2.5 μg, 4 h
  Intraocular pressure (IOP) change: −0.4 ± 1.2 mmHg
[1]; treated eye, 2.5 μg, 5 h
  Intraocular pressure (IOP) change: −0.1 ± 0.8 mmHg
[1]; untreated eye, 2.5 μg, 0 h
  Intraocular pressure (IOP) change: 0.0 ± 0.0 mmHg
[1]; untreated eye, 2.5 μg, 0.5 h
  Intraocular pressure (IOP) change: 0.3 ± 1.0 mmHg
[1]; untreated eye, 2.5 μg, 1 h
  Intraocular pressure (IOP) change: −1.3 ± 0.7 mmHg
[1]; untreated eye, 2.5 μg, 2 h
  Intraocular pressure (IOP) change: −1.6 ± 0.9 mmHg
[1]; untreated eye, 2.5 μg, 3 h
  Intraocular pressure (IOP) change: −1.7 ± 0.6 mmHg
[1]; untreated eye, 2.5 μg, 4 h
  Intraocular pressure (IOP) change: 0.4 ± 1.1 mmHg
[1]; untreated eye, 2.5 μg, 5 h
  Intraocular pressure (IOP) change: 0.4 ± 1.1 mmHg

## CC(=O)Oc1ccc2c(c1)C(Cc1c[nH]cn1)CC2.Cl (stereo not drawn) [example 1, 4-(6-Acetoxyindan-1-ylmethyl)-1H-imidazol-1-ium chloride]
[2]; [4]
  half-life: 23 days
[2]; [5]
  half-life: 1.1 days
[3]
  half-life: 0.18 min

## CCCC(=O)Oc1ccc2c(c1)C(Cc1c[nH]cn1)CC2.Cl (stereo not drawn) [example 2, 4-(6-Butyryloxyindan-1-ylmethyl)-1H-imidazol-1-ium chloride]
[2]; [4]
  half-life: 49 days
[2]; [5]
  half-life: 2.5 days
[3]
  half-life: 0.2 min

## CC(C)(C)C(=O)Oc1ccc2c(c1)C(Cc1c[nH]cn1)CC2.Cl (stereo not drawn) [example 3, 4-[6-(2,2-Dimethylpropanoyloxy)indan-1-ylmethyl]-1H-imidazol-1-ium chloride]
[2]; [4]
  half-life: 310 days
[2]; [5]
  half-life: 31 days
[3]
  half-life: 30 min
[1]; [6]
  IOP lowering potency compared to an equimolar dose of MPV-2426: increased IOP lowering potency
  duration of action compared to MPV-2426: prolonged duration of action
[1]; topical unilateral administration, treated eye
  duration of the IOP lowering effect: lasted from 1 h through the duration of the 5 h experiment
[1]; treated eye, 0.1 μg, 0 h
  Intraocular pressure (IOP) change: 0.0 ± 0.0 mmHg
[1]; treated eye, 0.1 μg, 0.5 h
  Intraocular pressure (IOP) change: 1.7 ± 0.9 mmHg
[1]; treated eye, 0.1 μg, 1 h
  Intraocular pressure (IOP) change: 0.2 ± 1.3 mmHg
[1]; treated eye, 0.1 μg, 2 h
  Intraocular pressure (IOP) change: 0.8 ± 1.2 mmHg
[1]; treated eye, 0.1 μg, 3 h
  Intraocular pressure (IOP) change: 0.6 ± 0.6 mmHg
[1]; treated eye, 0.1 μg, 4 h
  Intraocular pressure (IOP) change: 1.8 ± 0.5 mmHg
[1]; treated eye, 0.1 μg, 5 h
  Intraocular pressure (IOP) change: 2.0 ± 0.9 mmHg
[1]; treated eye, 1.0 μg, 0 h
  Intraocular pressure (IOP) change: 0.0 ± 0.0 mmHg
[1]; treated eye, 1.0 μg, 0.5 h
  Intraocular pressure (IOP) change: −1.0 ± 0.3 mmHg
[1]; treated eye, 1.0 μg, 1 h
  Intraocular pressure (IOP) change: −3.6 ± 0.7 mmHg
[1]; treated eye, 1.0 μg, 2 h
  Intraocular pressure (IOP) change: −4.6 ± 1.4 mmHg
[1]; treated eye, 1.0 μg, 3 h
  Intraocular pressure (IOP) change: −4.3 ± 1.1 mmHg
[1]; treated eye, 1.0 μg, 4 h
  Intraocular pressure (IOP) change: −2.0 ± 1.4 mmHg
[1]; treated eye, 1.0 μg, 5 h
  Intraocular pressure (IOP) change: −0.9 ± 1.8 mmHg
[1]; treated eye, 2.5 μg, 0 h
  Intraocular pressure (IOP) change: 0.0 ± 0.0 mmHg
[1]; treated eye, 2.5 μg, 0.5 h
  Intraocular pressure (IOP) change: 0.6 ± 0.9 mmHg
[1]; treated eye, 2.5 μg, 1 h
  Intraocular pressure (IOP) change: −2.9 ± 1.3 mmHg
[1]; treated eye, 2.5 μg, 2 h
  Intraocular pressure (IOP) change: −3.3 ± 1.8 mmHg
[1]; treated eye, 2.5 μg, 3 h
  Intraocular pressure (IOP) change: −1.6 ± 1.7 mmHg
[1]; treated eye, 2.5 μg, 4 h
  Intraocular pressure (IOP) change: 1.0 ± 2.2 mmHg
[1]; treated eye, 2.5 μg, 5 h
  Intraocular pressure (IOP) change: 1.3 ± 1.9 mmHg
[1]; treated eye, 3.4 μg (equimolar to 2.5 μg of MPV-2426), 0 h
  Intraocular pressure (IOP) change: 0.0 ± 0.0 mmHg
[1]; treated eye, 3.4 μg (equimolar to 2.5 μg of MPV-2426), 0.5 h
  Intraocular pressure (IOP) change: −0.9 ± 0.9 mmHg
[1]; treated eye, 3.4 μg (equimolar to 2.5 μg of MPV-2426), 1 h
  Intraocular pressure (IOP) change: −2.9 ± 0.5 mmHg
[1]; treated eye, 3.4 μg (equimolar to 2.5 μg of MPV-2426), 2 h
  Intraocular pressure (IOP) change: −6.5 ± 1.1 mmHg
[1]; treated eye, 3.4 μg (equimolar to 2.5 μg of MPV-2426), 3 h
  Intraocular pressure (IOP) change: −5.2 ± 1.7 mmHg
[1]; treated eye, 3.4 μg (equimolar to 2.5 μg of MPV-2426), 4 h
  Intraocular pressure (IOP) change: −3.2 ± 0.9 mmHg
[1]; treated eye, 3.4 μg (equimolar to 2.5 μg of MPV-2426), 5 h
  Intraocular pressure (IOP) change: −1.4 ± 0.7 mmHg
[1]; untreated (contralateral) eyes
  IOP changes in the untreated eyes: Less significant changes
[1]; untreated eye, 0.1 μg, 0 h
  Intraocular pressure (IOP) change: 0.0 ± 0.0 mmHg
[1]; untreated eye, 0.1 μg, 0.5 h
  Intraocular pressure (IOP) change: 1.4 ± 0.1 mmHg
[1]; untreated eye, 0.1 μg, 1 h
  Intraocular pressure (IOP) change: 0.9 ± 0.5 mmHg
[1]; untreated eye, 0.1 μg, 2 h
  Intraocular pressure (IOP) change: 1.3 ± 0.2 mmHg
[1]; untreated eye, 0.1 μg, 3 h
  Intraocular pressure (IOP) change: 1.3 ± 0.7 mmHg
[1]; untreated eye, 0.1 μg, 4 h
  Intraocular pressure (IOP) change: 1.0 ± 0.9 mmHg
[1]; untreated eye, 0.1 μg, 5 h
  Intraocular pressure (IOP) change: 2.4 ± 1.3 mmHg
[1]; untreated eye, 1.0 μg, 0 h
  Intraocular pressure (IOP) change: 0.0 ± 0.0 mmHg
[1]; untreated eye, 1.0 μg, 0.5 h
  Intraocular pressure (IOP) change: 0.0 ± 1.4 mmHg
[1]; untreated eye, 1.0 μg, 1 h
  Intraocular pressure (IOP) change: −2.1 ± 1.2 mmHg
[1]; untreated eye, 1.0 μg, 2 h
  Intraocular pressure (IOP) change: −2.0 ± 1.8 mmHg
[1]; untreated eye, 1.0 μg, 3 h
  Intraocular pressure (IOP) change: −0.9 ± 2.4 mmHg
[1]; untreated eye, 1.0 μg, 4 h
  Intraocular pressure (IOP) change: −1.4 ± 0.7 mmHg
[1]; untreated eye, 1.0 μg, 5 h
  Intraocular pressure (IOP) change: −0.8 ± 2.1 mmHg
[1]; untreated eye, 2.5 μg, 0 h
  Intraocular pressure (IOP) change: 0.0 ± 0.0 mmHg
[1]; untreated eye, 2.5 μg, 0.5 h
  Intraocular pressure (IOP) change: −0.2 ± 0.9 mmHg
[1]; untreated eye, 2.5 μg, 1 h
  Intraocular pressure (IOP) change: −0.6 ± 0.7 mmHg
[1]; untreated eye, 2.5 μg, 2 h
  Intraocular pressure (IOP) change: 0.0 ± 1.5 mmHg
[1]; untreated eye, 2.5 μg, 3 h
  Intraocular pressure (IOP) change: 0.1 ± 1.0 mmHg
[1]; untreated eye, 2.5 μg, 4 h
  Intraocular pressure (IOP) change: 1.0 ± 1.8 mmHg
[1]; untreated eye, 2.5 μg, 5 h
  Intraocular pressure (IOP) change: 0.3 ± 1.6 mmHg
[1]; untreated eye, 3.4 μg (equimolar to 2.5 μg of MPV-2426), 0 h
  Intraocular pressure (IOP) change: 0.0 ± 0.0 mmHg
[1]; untreated eye, 3.4 μg (equimolar to 2.5 μg of MPV-2426), 0.5 h
  Intraocular pressure (IOP) change: 0.4 ± 0.7 mmHg
[1]; untreated eye, 3.4 μg (equimolar to 2.5 μg of MPV-2426), 1 h
  Intraocular pressure (IOP) change: −2.7 ± 0.8 mmHg
[1]; untreated eye, 3.4 μg (equimolar to 2.5 μg of MPV-2426), 2 h
  Intraocular pressure (IOP) change: −1.3 ± 0.6 mmHg
[1]; untreated eye, 3.4 μg (equimolar to 2.5 μg of MPV-2426), 3 h
  Intraocular pressure (IOP) change: −2.8 ± 0.8 mmHg
[1]; untreated eye, 3.4 μg (equimolar to 2.5 μg of MPV-2426), 4 h
  Intraocular pressure (IOP) change: −0.8 ± 0.7 mmHg
[1]; untreated eye, 3.4 μg (equimolar to 2.5 μg of MPV-2426), 5 h
  Intraocular pressure (IOP) change: −0.8 ± 1.0 mmHg
other
  melting point: 176 to 177 °C
